Data set [1] deals with E. coli K12. As to the kind of experiment: Growth inhibition of E. coli K12. The following applies: Escherichia coli. The class given is cell-based.
For data set [2], the system named is PfNF54. As to the kind of experiment: Whole-cell assay, [3H]-hypoxanthine incorporation. The class given is cell-based, Plasmodium falciparum. To be noted: mean ± SD, n.a. = absence of activity. The method, then:
After incubation for 48 h, 0.25 μCi of [^3H]-hypoxanthine was added per well and plates were incubated for an additional 24 h.

Data set [3] deals with PK-LDH. As to the kind of experiment: Activity against auxiliary enzymes PK-LDH. The class given is biochemical.
Data set [4] has as its target EcIspE (Escherichia coli, UniProt P62615). In words: Activity against auxiliary enzyme EcIspE. It is filed as biochemical.
For data set [5], the system named is IspD. To be noted: cited from earlier work.
Data set [6] has as its system Mtb H37Rv mCherry 10 strain. As to the kind of experiment: MIC 90 against Mtb H37Rv mCherry 10 strain. The class given is cell-based. To be noted: Mycobacterium tuberculosis, read-out: MIC 90 (growth inhibition) of Mtb H37Rv mCherry 10 strain.
The test system of data set [7] is Pf3D7 (WT) and MMV008138 resistant parasites (R2 and R3). In words: IDP rescue assay. The class given is cell-based, Plasmodium falciparum. The following applies: 200 μM IDP, 72 h. The protocol: The parasite growth was quantified by measuring DNA content using PicoGreen assay (Invitrogen). IC50 values were calculated by nonlinear regression analysis using GraphPad Prism software and reflect the mean ± standard error of the mean (SEM) from at least three independent experiments. Statistical comparison of the values was done via one-way ANOVA.

Data set [8] deals with malaria. Also noted: method as in Fernandes et al. [6]−[8]. To be noted: children, combination therapy, meta-analysis ref Fernandes et al. [6]−[8]; cited from earlier work.
Data set [9] has as its target T1, PfIspD (Plasmodium falciparum, UniProt Q8I273).
T1 sequence (Q8I273 1-734): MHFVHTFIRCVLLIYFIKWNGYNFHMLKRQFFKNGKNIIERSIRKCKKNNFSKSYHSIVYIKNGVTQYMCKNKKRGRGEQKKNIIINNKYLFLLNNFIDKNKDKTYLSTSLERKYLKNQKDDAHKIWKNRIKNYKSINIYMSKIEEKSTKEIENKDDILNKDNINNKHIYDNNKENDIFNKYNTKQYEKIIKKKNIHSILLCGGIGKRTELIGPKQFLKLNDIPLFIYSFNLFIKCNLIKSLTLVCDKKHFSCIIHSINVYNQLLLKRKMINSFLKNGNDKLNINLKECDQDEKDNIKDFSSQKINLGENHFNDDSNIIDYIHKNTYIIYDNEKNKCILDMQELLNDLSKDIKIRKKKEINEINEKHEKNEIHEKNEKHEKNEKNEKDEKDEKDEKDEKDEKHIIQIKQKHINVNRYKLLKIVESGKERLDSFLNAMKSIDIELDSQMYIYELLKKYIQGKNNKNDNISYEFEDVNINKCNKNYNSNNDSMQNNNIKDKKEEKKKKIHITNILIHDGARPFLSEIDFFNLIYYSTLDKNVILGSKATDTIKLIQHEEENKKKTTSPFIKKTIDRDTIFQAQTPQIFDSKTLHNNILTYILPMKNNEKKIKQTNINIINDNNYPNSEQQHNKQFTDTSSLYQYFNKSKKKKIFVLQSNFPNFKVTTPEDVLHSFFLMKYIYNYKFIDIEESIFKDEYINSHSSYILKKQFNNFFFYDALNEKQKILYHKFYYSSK
In words: Determination of enzyme kinetics, LC-MS based IspD assay. It is filed as biochemical. To be noted: our results, n = 2, mean ± SD; read-out: Km^CTP. The protocol:
(§1) A volume of 80 μL Buffer A containing 100 mM Tris-HCl pH 7.6, 1 mM DTT, 1 mM MgCl2, 50 nM PfIspD were added to well A1 96-well plate while 50 μL were added to the rest of the wells. A volume of 20 μL of 10 mM CTP was added to the first well, then a serial dilution was conducted by moving 50 μL. To start the reaction, we then added on buffer A 50 μL of Buffer B containing 100 mM Tris-HCl pH 7.6, 1 mM DTT, and 1 mM MEP. The assay plate was incubated at 37 °C for 40 min, after which, the protein was denaturated by heating up the plate to 95 °C for 5 min. The plate was then centrifuged at 4000 rpm at 4 °C for 5 min to precipitate the protein. […] Thereafter, 10 μL of each of the supernatants from the assay plate were added to the plate containing the mixture with our internal standard. The plate was centrifuged again at 4000 rpm at 4 °C for 5 min, after which, 50 μL of the supernatant was transferred to an LC-MS plate and closed with a silicon cover. LC-MS conditions and data analysis methods we used were described above. The peak area for each conditions were used to calculate the Michaelis–Menten kinetic parameters using Graphpad Prism v 9. Measurements were performed in duplicates, repeated at least two times from two to three independent experiments.

Data set [10] addresses T1, PfIspD. In words: Photometric in vitro PfIspD assay. The class given is biochemical. To be noted: mean ± SD, n ≥ 2; n.a. = absence of activity. The protocol: Dilution series (1:2) of inhibitors in DMSO covered the concentration range of approximately 200–0.01 μM. After finishing the dilution series, the final volume of compound solution in DMSO per well was 3 μL. For the IspD assay, 30 μL aliquots of a solution containing 100 mM Tris-HCl, pH 7.6, 0.02% NaN3, 1 mM MEP and 1 mM CTP were added to microplate wells preloaded with 3 μL of DMSO containing test compounds. […] Initial rates were estimated using Softmax Pro 6.1 software (Molecular Devices, Biberach an der Riss, Germany). IC50 values were determined with a nonlinear regression method using the program Dynafit.[21]

Substrate in data set [11]: C[C@](O)(CO)[C@H](O)COP(=O)(O)O
As to the kind of experiment: Determination of enzyme kinetics, LC-MS based IspD assay. It is filed as biochemical, Plasmodium falciparum. The following applies: other: our results, n = 2, mean ± SD; pH 7.6. The protocol:
as §1

Converted amounts (≈) assume the structure as drawn. Like-named read-outs stand apart in the source and are kept apart here. Where only a bound is given, the exact number is not on record here.

EcIspE, sequence (P62615 whole entry): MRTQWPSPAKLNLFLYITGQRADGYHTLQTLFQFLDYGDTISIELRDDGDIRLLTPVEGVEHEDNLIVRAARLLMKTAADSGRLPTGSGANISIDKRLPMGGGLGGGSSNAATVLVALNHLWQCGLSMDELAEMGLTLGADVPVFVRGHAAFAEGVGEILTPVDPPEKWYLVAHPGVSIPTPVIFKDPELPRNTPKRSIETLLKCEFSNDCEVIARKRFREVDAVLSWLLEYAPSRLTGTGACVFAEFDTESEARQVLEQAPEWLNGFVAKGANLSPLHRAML

Turning to `O=C(Nc1ccc(Cl)cc1)Nc1cccc(S(=O)(=O)N2CCCC2)c1` [Compound 5, 1-(4-Chlorophenyl)-3-(3-(pyrrolidin-1-ylsulfonyl)phenyl)urea], 100 µM produced 45 ± 6% inhibition in data set [1]. Still for that read-out and setting: in the case of `O=C(Nc1ccc([N+](=O)[O-])cc1)Nc1cccc(S(=O)(=O)N2CCCC2)c1` [Compound 8, 1-(4-Nitrophenyl)-3-(3-(pyrrolidin-1-ylsulfonyl)phenyl)urea] it was 14 ± 5%. Take `Nc1ccc(NC(=O)Nc2cccc(S(=O)(=O)N3CCCC3)c2)cc1` [Compound 4, 1-(4-Aminophenyl)-3-(3-(pyrrolidin-1-ylsulfonyl)phenyl)urea]: in data set [2], the “PfNF54 (IC50 μM)” value was “lacking whole-cell activity”.

For the molecule `O=C(Nc1ccc([N+](=O)[O-])cc1)Nc1cccc(S(=O)(=O)N2CCOCC2)c1` [Compound 27, 1-(3-(Morpholinosulfonyl)phenyl)-3-(4-nitrophenyl)urea], the IC50 was 104 ± 19 µM in data set [3] and over 500 µM in data set [4]. The matching figures for `O=C(Nc1ccc([N+](=O)[O-])cc1)Nc1ccc(F)c(S(=O)(=O)N2CCOCC2)c1` [Compound 31, 1-(4-Fluoro-3-(morpholinosulfonyl)phenyl)-3-(4-nitrophenyl)urea]: over 500 µM and 75 ± 11 µM. Take `COC(=O)c1ccc(NC(=O)Nc2cccc(S(=O)(=O)N3CCCC3)c2)cc1` [Compound 7, Methyl 4-(3-(3-(Pyrrolidin-1-ylsulfonyl)phenyl)ureido)benzoate]: the values for the IC50 in [3] and in data set [4] were 242 ± 72 µM and over 500 µM, respectively. On to `C[C@](O)(CO)[C@H](O)COP(=O)(O)O` [MEP, 2-C-methylerythritol-D-erythritol-4-phosphate], for which the Km is 12 ± 3 µM in data set [5] (ref Ghavami et al.[18], read-out: Km^MEP) and 61 µM in data set [5] (ref Wu et al.[14], read-out: Km^MEP). With `N#Cc1ccc(NC(=O)Nc2cccc(S(=O)(=O)N3CCCC3)c2)cc1` [Compound 10, 1-(4-Cyanophenyl)-3-(3-(pyrrolidin-1-ylsulfonyl)phenyl)urea], in [1], at 100 µM the inhibition was 46 ± 4%. For the same molecule, the MIC90 in [6] turned out to be 64 µM (≈ 23.7 µg/mL). For the same molecule, in [7], the “effect of IDP supplementation on sensitivity” value was “equalized the sensitivity of the resistant strains and the wild type”. As for `CS(=O)(=O)c1ccc(NC(=O)Nc2cccc(S(=O)(=O)N3CCCC3)c2)cc1` [Compound 9, 1-(4-(Methylsulfonyl)phenyl)-3-(3-(pyrrolidin-1-ylsulfonyl)phenyl)urea], the IC50 in [3] and in data set [4] was over 500 µM each time. For `O=CN(O)CCCP(=O)(O)O` [fosmidomycin], the cure rate in data set [8] was 85%. In the case of `O=C(Nc1ccc(C(F)(F)F)cc1)Nc1cccc(S(=O)(=O)N2CCCC2)c1` [Compound 11, 1-(3-(Pyrrolidin-1-ylsulfonyl)phenyl)-3-(4-(trifluoromethyl)phenyl)urea], the IC50 in [3] stood at 73 ± 15 µM; in data set [4] (auxiliary enzyme, read-out: EcIspE (IC50 µM)), 73 ± 15 µM.

With `O=C(Nc1ccc([N+](=O)[O-])cc1)Nc1cccc(S(=O)(=O)N2CCCCC2)c1` [Compound 26, 1-(4-Nitrophenyl)-3-(3-(piperidin-1-ylsulfonyl)phenyl)urea], the IC50 was over 500 µM in [3] and 49 ± 7 µM in [4].

For `Nc1ccn([C@@H]2O[C@H](COP(=O)(O)OP(=O)(O)OP(=O)(O)O)[C@@H](O)[C@H]2O)c(=O)n1` [CTP, cytidine triphosphate], the Km was 9 ± 3 µM in data set [5] (ref Ghavami et al.[18], read-out: Km^CTP); 59 ± 4 µM in data set [5] (ref Imlay et al.[12], read-out: Km^CTP); 58 ± 9 µM in [9]. For “1-(4-Methyl-3-(morpholinosulfonyl)phenyl)-3-(4-nitrophenyl)urea [Compound 33]”, the IC50 in data set [10] was over 10000 nM.

B1: PfIspD (Plasmodium falciparum 3D7) (protein)
chain: T1 sequence (Q8I273 1-734)
With B1, the Km in data set [11] worked out at 46 ± 3 µM.
